Where two headings read alike, the source gives them in different places.
Columns and labels:
PARP2 = target: T1, PARP2 (Homo sapiens, UniProt Q9UGN5); test: biochemical; assay type: biochemical
T1 construct: made in house

TNKS2 = target: T2, TNKS2 (Homo sapiens, UniProt Q9H2K2); test: biochemical
T2 sequence (Q9H2K2 1-1166): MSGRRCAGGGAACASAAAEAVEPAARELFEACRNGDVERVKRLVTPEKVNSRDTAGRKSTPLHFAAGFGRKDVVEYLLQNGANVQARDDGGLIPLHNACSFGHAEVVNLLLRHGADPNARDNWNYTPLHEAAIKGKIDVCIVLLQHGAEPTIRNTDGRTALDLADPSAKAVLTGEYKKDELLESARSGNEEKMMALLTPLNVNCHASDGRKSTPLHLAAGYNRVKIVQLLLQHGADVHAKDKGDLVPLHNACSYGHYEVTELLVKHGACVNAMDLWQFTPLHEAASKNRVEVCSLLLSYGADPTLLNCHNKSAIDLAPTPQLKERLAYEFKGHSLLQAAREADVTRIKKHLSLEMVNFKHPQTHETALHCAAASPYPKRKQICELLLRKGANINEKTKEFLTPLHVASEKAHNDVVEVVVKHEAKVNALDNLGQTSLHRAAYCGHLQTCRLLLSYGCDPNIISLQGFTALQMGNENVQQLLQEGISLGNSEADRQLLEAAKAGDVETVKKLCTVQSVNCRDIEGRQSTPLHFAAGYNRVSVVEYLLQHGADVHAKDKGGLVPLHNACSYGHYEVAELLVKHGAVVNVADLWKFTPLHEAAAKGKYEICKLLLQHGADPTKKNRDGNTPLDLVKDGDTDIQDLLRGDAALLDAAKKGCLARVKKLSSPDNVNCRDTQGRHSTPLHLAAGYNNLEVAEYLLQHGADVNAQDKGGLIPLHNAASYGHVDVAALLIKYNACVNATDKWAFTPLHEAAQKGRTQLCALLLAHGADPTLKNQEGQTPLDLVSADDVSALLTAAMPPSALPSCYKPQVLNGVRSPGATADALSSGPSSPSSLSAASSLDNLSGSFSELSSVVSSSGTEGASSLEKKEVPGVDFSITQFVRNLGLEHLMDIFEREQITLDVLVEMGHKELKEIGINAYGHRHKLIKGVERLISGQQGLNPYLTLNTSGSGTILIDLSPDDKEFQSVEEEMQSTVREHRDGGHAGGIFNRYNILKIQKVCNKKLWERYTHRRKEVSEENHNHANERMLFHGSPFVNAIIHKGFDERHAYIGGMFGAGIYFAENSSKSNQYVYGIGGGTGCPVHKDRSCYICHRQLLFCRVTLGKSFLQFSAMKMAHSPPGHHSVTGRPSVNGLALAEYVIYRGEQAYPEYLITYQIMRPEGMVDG
Experimental: The proteins used in Tables 1–3 were produced as described earlier. Dockerin constructs to allow enhanced activity assays for mono-ARTs (Table 4) were produced in Escherichia coli with an N-terminal maltose binding protein (MBP) and a C-terminal dockerin domain from Hungateiclostridium thermocellum Cel48s as described recently.[47]
Inhibition experiments were performed using a homogenous assay measuring NAD+ consumption.[80]−[82] Reactions were carried out in quadruplicate, and IC50 curves were fitted using sigmoidal dose response curve (four variables) in GraphPad Prism version 8.02. […] Assay conditions for PARP2, TNKS2, PARP10, and PARP15 (Tables 1–3) were recently reported.[44] The conditions for the proximity-enhanced mono-ART assays (Table 4) were also reported recently.[47] PARP6 (400 nM) inhibition was measured using the standard buffer (50 mM sodium phosphate pH 7.0) for the enhanced activity assay using 500 nM NAD^+ and 18 h incubation in r.t..

[1] = PAMPA, blood brain barrier (BBB) permeability; assay type: in vitro ADME; details: brain polar lipid, pH 7.4, 5 h
Experimental: Each “donor solution” was prepared from a solution of the appropriate compound (DMSO, 1 mM) diluted with phosphate buffer (pH 7.4, 0.025 M) up to a final concentration of 500 μM. […] Donor solution (150 μL) was added to each well of the filter plate and to each well of the acceptor plate was added 300 μL of solution (50% DMSO in phosphate buffer). The sandwich plate was assembled and incubated for 5 h at r.t. After the incubation time, the plates were separated, and the samples were taken from both the donor and acceptor wells, and the amount of compound was measured by UV/LC–MS. All compounds were tested in three independent experiments. […] Drug concentration is estimated by using the peak area integration. Membrane retentions (%) were calculated according to the following equation [drawing 2] where r is the ratio between drug concentration in the acceptor and equilibrium concentration and D, A, and Eq represent drug concentration in the donor, acceptor, and equilibrium solution, respectively.

PARP15 = target: T3, PARP15 (Homo sapiens, UniProt Q460N3); test: biochemical; assay type: biochemical; details: standard assay (Tables 1-3); * value limited by the protein concentration used; > less than 50% inhibition, ≫ no inhibition at the concentration; read-out: PARP15 IC50
T3 construct: made in house
T3 sequence (Q460N3 1-678): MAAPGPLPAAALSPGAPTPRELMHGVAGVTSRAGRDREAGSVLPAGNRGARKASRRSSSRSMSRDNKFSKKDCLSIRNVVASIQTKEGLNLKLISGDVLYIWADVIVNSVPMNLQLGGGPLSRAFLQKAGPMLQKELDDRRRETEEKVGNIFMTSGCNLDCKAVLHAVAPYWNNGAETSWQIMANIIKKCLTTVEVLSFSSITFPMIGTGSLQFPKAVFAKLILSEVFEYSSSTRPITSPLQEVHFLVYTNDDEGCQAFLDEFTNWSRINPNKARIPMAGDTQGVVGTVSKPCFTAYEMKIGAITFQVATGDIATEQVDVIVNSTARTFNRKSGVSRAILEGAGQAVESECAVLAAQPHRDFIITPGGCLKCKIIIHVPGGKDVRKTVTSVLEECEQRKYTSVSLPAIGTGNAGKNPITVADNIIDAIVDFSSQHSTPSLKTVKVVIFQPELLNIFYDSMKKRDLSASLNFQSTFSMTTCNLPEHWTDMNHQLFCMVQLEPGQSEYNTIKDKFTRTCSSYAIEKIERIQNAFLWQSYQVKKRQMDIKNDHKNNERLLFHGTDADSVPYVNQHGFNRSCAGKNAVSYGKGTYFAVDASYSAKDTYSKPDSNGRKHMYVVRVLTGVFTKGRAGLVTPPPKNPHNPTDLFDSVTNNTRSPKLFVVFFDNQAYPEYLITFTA

[2] = > = less than 50% inhibition at highest concentration, ≫ = no inhibition, read-out: PARP2 IC50
[3] = read-out: TNKS2 IC50, > = less than 50% inhibition at highest concentration

T1 sequence (Q9UGN5 whole entry): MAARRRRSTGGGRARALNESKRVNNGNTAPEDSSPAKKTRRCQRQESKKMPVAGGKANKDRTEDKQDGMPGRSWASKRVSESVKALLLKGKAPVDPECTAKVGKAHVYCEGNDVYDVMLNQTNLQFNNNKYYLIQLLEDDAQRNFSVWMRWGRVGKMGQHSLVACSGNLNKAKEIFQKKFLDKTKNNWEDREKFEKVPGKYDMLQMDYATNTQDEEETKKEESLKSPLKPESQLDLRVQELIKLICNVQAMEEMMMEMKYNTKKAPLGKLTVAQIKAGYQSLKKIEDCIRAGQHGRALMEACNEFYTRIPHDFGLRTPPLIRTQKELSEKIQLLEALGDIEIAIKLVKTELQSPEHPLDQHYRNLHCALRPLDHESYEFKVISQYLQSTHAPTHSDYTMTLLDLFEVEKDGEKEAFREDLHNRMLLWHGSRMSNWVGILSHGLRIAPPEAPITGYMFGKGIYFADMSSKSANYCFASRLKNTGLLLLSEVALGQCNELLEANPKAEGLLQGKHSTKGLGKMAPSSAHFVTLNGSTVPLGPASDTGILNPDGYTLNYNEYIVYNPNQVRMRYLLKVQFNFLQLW

Row | Structure (SMILES) | IC50 (PARP2; [2]) | IC50 (TNKS2; [3]) | other results
1 | COc1ccc(OC)c2c1sc1nnc(S)n12 [Compound 26, 5,8-Dimethoxy[1,2,4]triazolo[3,4-b][1,3]benzothiazole-3(2H)-thione] | 19 µM | 66 µM | 
2 | COc1ccc2sc3nncn3c2c1 [Compound 10, 6-Methoxy[1,2,4]triazolo[3,4-b][1,3]benzothiazole] | 4.7 µM | 1 µM | 
3 | Cc1cc(C)c2c(c1)sc1nncn12 [Compound 8] | 1.3 µM | 1.2 µM | 
4 | COc1cccc2c1sc1nncn12 [Compound 12, 8-Methoxy[1,2,4]triazolo[3,4-b][1,3]benzothiazole] | > 10 µM | 24 µM | 
5 | Oc1cccc2c1sc1nncn12 [Compound 17, [1,2,4]Triazolo[3,4-b][1,3]benzothiazol-8-ol] | 29 µM | 17 µM | 
6 | Clc1ccc2c(c1)sc1nncn12 [Compound 7] | 2.4 µM | 10 µM | 
7 | Cc1ccc2c(c1)sc1nncn12 [Compound 1] | 4 µM | 5.3 µM | 
8 | COc1ccc(OC)c2c1sc1nnc(NC(C)=O)n12 [Compound 31, N-(5,8-Dimethoxy[1,2,4]triazolo[3,4-b][1,3]benzothiazol-3-yl)acetamide] | 97 µM | > 100 µM | 
9 | Cc1ccc2c(c1)sc1nnc(SCc3ccc(Cl)cc3)n12 [Compound 23, 3-[(4-Chlorobenzyl)thio]-7-methyl[1,2,4]triazolo[3,4-b][1,3]benzothiazole] | > 100 µM | > 100 µM | 
10 | COc1ccc(OC)c2c1sc1nnc(NC(=O)C(C)(C)C)n12 [Compound 30, N-(5,8-Dimethoxy[1,2,4]triazolo[3,4-b][1,3]benzothiazol-3-yl)-2,2-dimethylpropanamide] |  | > 100 µM | IC50 (PARP2): 53 µM
11 | CSc1nnc2sc3cc(C)ccc3n12 [Compound 22, 7-Methyl-3-(methylthio)[1,2,4]triazolo[3,4-b][1,3]benzothiazole] | 12 µM | > 100 µM | 
12 | O=C(c1cc(Cc2n[nH]c(=O)c3ccccc23)ccc1F)N1CCN(C(=O)C2CC2)CC1 [olaparib, reference compound] |  |  | Papp at 5 h, 500 μM [1]: 0.016 ×10⁻⁶ cm/s
13 | Cc1ccc2sc3nncn3c2c1 [Compound 3, 6-Methyl[1,2,4]triazolo[3,4-b][1,3]benzothiazole] | 1.5 µM | 0.95 µM | TNKS2 pIC50 ± SEM (TNKS2; n = 3): 6.02 ± 0.13
14 | Cc1ccc2c(c1)sc1nnc(O)n12 [Compound 19] | > 100 µM | > 100 µM | IC50 (PARP15): > 10 µM
15 | Cc1ccc2c(c1)sc1nnc(/N=C\c3ccc(Cl)cc3)n12 [Compound 24, N-[(1Z)-(4-Chlorophenyl)methylene]-7-methyl[1,2,4]triazolo[3,4-b][1,3]benzothiazol-3-amine] |  |  | IC50 (PARP2; read-out: PARP2 IC50): 2.9 µM; IC50 (TNKS2): > 100 µM
16 | CCc1ccc2c(c1)sc1nncn12 [Compound 5, 7-Ethyl[1,2,4]triazolo[3,4-b][1,3]benzothiazole] | 3.9 µM | 5.3 µM | 
17 | Cc1cccc2c1sc1nncn12 [Compound 4, 8-Methyl[1,2,4]triazolo[3,4-b][1,3]benzothiazole] | 8.3 µM | 3.8 µM | 
18 | COc1cc(OC)c2sc3nncn3c2c1 [Compound 15, 6,8-Dimethoxy[1,2,4]triazolo[3,4-b][1,3]benzothiazole] | 20 µM | 7.6 µM | 
19 | Cc1ccc(F)c2c1sc1nncn12 [Compound 9, 5-Fluoro-8-methyl[1,2,4]triazolo[3,4-b][1,3]benzothiazole] |  | 5.4 µM | 
20 | COc1cccc2sc3nncn3c12 [Compound 13, 5-Methoxy[1,2,4]triazolo[3,4-b][1,3]benzothiazole] |  | 1 µM | 
21 | COc1ccc(OC)c2c1sc1nncn12 [Compound 14, 5,8-Dimethoxy[1,2,4]triazolo[3,4-b][1,3]benzothiazole] | 9.2 µM | 4 µM | 
22 | COc1ccc2c(c1)sc1nncn12 [Compound 11] | 8.8 µM | 5.5 µM | 
23 | Cc1ccc2c(c1)sc1nnc(NCc3ccc(Cl)cc3)n12 [Compound 25, N-(4-Chlorobenzyl)-7-methyl[1,2,4]triazolo[3,4-b][1,3]benzothiazol-3-amine] | 70 µM | > 100 µM | 

— PMC9884089 (Journal of Medicinal Chemistry, 2023)
